{
  "source": "paper PMC9501280",
  "about": "“Anti-Inflammatory Activity of Soluble Epoxide Hydrolase Inhibitors Based on Selenoureas Bearing an Adamantane Moiety” (International Journal of Molecular Sciences, 2022)",
  "key": {"[1]": {"system": "LPS-stimulated C57bl/6j peritoneal macrophages", "experiment": "Suppression of NO synthesis in LPS-stimulated peritoneal macrophages (Griess)", "type": "cell-based, mice", "excerpt": "For screening designed compounds according to their probable ability to limit inflammation, we used a test on the inhibition of LPS-induced activation of primary murine macrophages. The most prominent anti-inflammatory activity, defined as the suppression of nitric oxide synthesis by LPS-stimulated macrophages, was evident for compounds 4a and 5b. At the same time, for 4a, the cytotoxic concentration was 4.7–18.4 times higher than the effective anti-inflammatory concentration. […] According to the data obtained, there is no direct correlation between the efficiency of the inhibition of sEH and NO synthesis, which requires further studies of the anti-inflammatory activity of the investigated compounds.\nPeritoneal macrophages (PM) were isolated from the peritoneal exudate of 30 male C57bl/6j mice. To accumulate PM, 1 mL of 3% peptone solution was injected intraperitoneally. After 3 days, the mice were euthanized by cervical dislocation. Cells of peritoneal exudate were obtained by aseptic washing of the abdominal cavity with 5 mL of sterile Hanks’s solution (+4–6 °C) without calcium and magnesium ions. The total number and viability of cells were assessed in a Goryaev counting chamber (Russia) with a 0.4% trypan blue staining (Sigma-Aldrich, St. Louis, MO, USA). The cell concentration was adjusted to 1.0 × 10^6 cells/mL in DMEM (Gibco) supplemented with 2 mM L-glutamine (Gibco), 10% heat-inactivated fetal bovine serum (BioClot, Passau, Germany), 100 U/mL penicillin and […] streptomycin (Gibco) and plated 200 μL/well in 96-well transparent plates (SPL Life Sciences Co., Ltd., Pochon, Korea). After 2 h at 37 °C in a humidified atmosphere with 5% CO2, wells were washed to remove nonadherent cells. After 24 h of incubation, 20 μL of the supernatants were substituted with 20 μL of solutions of the test compounds, followed with E. coli O127:B8 LPS (100 ng/mL final concentration) after 30 min. Experiments were run in 3 independent replicates.\nThe accumulation of nitrite anion (a stable decomposition product of NO produced by iNOS) in the supernatants was determined using a standard Griess reagent. Briefly, 50 μL of supernatants collected 22 h after incubation of PM with the test and control compounds were mixed with 50 μL of 1% sulfonamide in 2.5% H3PO4 and 50 μL of 0.1% N-(1-naphthyl) ethylenediamine in 2.5% H3PO4. After incubation at 23 °C for 10 min. in an orbital shaker, the optical density was determined at a wavelength of 550 nm with a microplate reader Infinite M200 PRO (Tecan, Austria)."}, "E. coli MG1655 pSoxS-lux": {"system": "E. coli MG1655 pSoxS-lux", "experiment": "Lux-biosensor, superoxide anion radicals (PsoxS)", "type": "cell-based, Escherichia coli", "conditions": "compounds 1 μM to 1 mM; Standard = methyl viologen 100 μM", "experimental": "(§1) The study was carried out with use of the following whole-cell bacterial biosensors: Escherichia coli MG1655 pOxyR-lux, E. coli MG1655 pDps, E. coli MG1655 pSoxS-lux, E. coli MG1655 pColD-lux, E. coli MG1655 pAlkA-lux, E. coli MG1655 pXen7, Bacillus subtilis 168 pNK-AlkA, B. subtilis 168 pNK-MrgA and B. subtilis 168 pNK-DinC. These biosensors by the quantitation of bacterial stress promoters’ activity, make it possible to determine oxidative stress caused by hydrogen peroxide and the superoxide anion radical, SOS response, DNA alkylation, or general toxicity in Gram-positive and Gram-negative B. subtilis and E. coli cells. We used concentrations from 1 μM to 1 mM of the studied compounds added to the suspension of biosensor cells. […]\n(§2) The bioluminescence of cells was measured using a Synergy HT luminometer (Biotek, Winooski, VT, USA) at room temperature. Lux biosensors based on E. coli were grown to an early logarithmic phase (OD ≈ 0.1) to achieve a background luminescence approximately 100–1000 RLU at the beginning of the measurements. Lux biosensors based on B. subtilis were grown to a logarithmic phase with an optical density OD ≈ 0.6 (and background luminescence of about 10–500 RLU). […] The kinetics of change in luminescence was measured at room temperature. […]"}, "B. subtilis 168 pNK-DinC": {"system": "B. subtilis 168 pNK-DinC", "experiment": "Lux-biosensor, SOS response (PdinC)", "type": "cell-based, Bacillus subtilis", "conditions": "compounds 1 μM to 1 mM; Standard = Mitomycin C 30 μM", "experimental": "as §1, §2"}, "B. subtilis 168 pNK-AlkA": {"system": "B. subtilis 168 pNK-AlkA", "experiment": "Lux-biosensor, DNA alkylation (PalkA)", "type": "cell-based, Bacillus subtilis", "conditions": "compounds 1 μM to 1 mM; Standard = methyl methanesulfonate 1 mM", "experimental": "as §1, §2"}, "[2]": {"system": "E. coli MG1655 and B. subtilis 168 biosensor cells", "experiment": "Whole-cell bacterial lux-biosensors, whole panel (statements in words)", "type": "cell-based, Escherichia coli, Bacillus subtilis", "conditions": "concentrations from 1 μM to 1 mM", "experimental": "The study was carried out with use of the following whole-cell bacterial biosensors: Escherichia coli MG1655 pOxyR-lux, E. coli MG1655 pDps, E. coli MG1655 pSoxS-lux, E. coli MG1655 pColD-lux, E. coli MG1655 pAlkA-lux, E. coli MG1655 pXen7, Bacillus subtilis 168 pNK-AlkA, B. subtilis 168 pNK-MrgA and B. subtilis 168 pNK-DinC. These biosensors by the quantitation of bacterial stress promoters’ activity, make it possible to determine oxidative stress caused by hydrogen peroxide and the superoxide anion radical, SOS response, DNA alkylation, or general toxicity in Gram-positive and Gram-negative B. subtilis and E. coli cells. We used concentrations from 1 μM to 1 mM of the studied compounds added to the suspension of biosensor cells.\nIn this work, biosensor strains based on E. coli MG1655 cells and B. subtilis 168 cells were used.\nThe bioluminescence of cells was measured using a Synergy HT luminometer (Biotek, Winooski, VT, USA) at room temperature. Lux biosensors based on E. coli were grown to an early logarithmic phase (OD ≈ 0.1) to achieve a background luminescence approximately 100–1000 RLU at the beginning of the measurements. Lux biosensors based on B. subtilis were grown to a logarithmic phase with an optical density OD ≈ 0.6 (and background luminescence of about 10–500 RLU). […] The kinetics of change in luminescence was measured at room temperature."}},
  "data": [
    {"compound": "[Se]=C(Nc1ccccc1)NC12CC3CC(CC(C3)C1)C2", "note": "[4a, 1-(Adamantan-1-yl)-3-phenylselenourea]", "values": [
      {"measurement": "cytotoxic concentration versus effective anti-inflammatory concentration", "setting": "[1]; CC50 (MTT, LDH) over NO synthesis IC50, peritoneal macrophages", "result": "4.7–18.4 times"},
      {"measurement": "IC50", "setting": "[1]; Mus musculus, Peritoneal macrophage, 22 h, read-out: NO Synthesis, IC50 ± SE", "result": "1600 ± 200", "unit": "nM"},
      {"measurement": "max(Kind), E. coli MG1655 pSoxS-lux", "setting": "E. coli MG1655 pSoxS-lux", "result": "1.16 ± 0.19"},
      {"measurement": "max(Kind), B. subtilis 168 pNK-DinC", "setting": "B. subtilis 168 pNK-DinC", "result": "1.1 ± 0.4"},
      {"measurement": "max(Kind), B. subtilis 168 pNK-AlkA", "setting": "B. subtilis 168 pNK-AlkA", "result": "0.8 ± 0.4"},
      {"measurement": "activation of stress promoters (in words)", "setting": "[2]", "result": "causes only the activation of stress promoter PoxyR"}
    ]},
    {"compound": "[Se]=C(Nc1ccccc1)NC1C2CC3CC(C2)CC1C3", "note": "(centres unmarked) [4g, 1-(Adamantan-2-yl)-3-phenylselenourea]", "values": [
      {"measurement": "NO synthesis inhibition (in words)", "setting": "[1]; LPS-stimulated macrophages", "result": "able to inhibit sEH but not NO synthesis"},
      {"measurement": "max(Kind), E. coli MG1655 pSoxS-lux", "setting": "E. coli MG1655 pSoxS-lux", "result": "1.0 ± 0.1"},
      {"measurement": "max(Kind), B. subtilis 168 pNK-DinC", "setting": "B. subtilis 168 pNK-DinC", "result": "1.1 ± 0.3"},
      {"measurement": "max(Kind), B. subtilis 168 pNK-AlkA", "setting": "B. subtilis 168 pNK-AlkA", "result": "0.7 ± 0.4"},
      {"measurement": "activation of stress promoters (in words)", "setting": "[2]", "result": "does not cause an increase in the luminescence"}
    ]}
  ]
}
